Here are results for 21 molecules from US10640506B2, “Cyclobutyl substituted pyrrolopyridine and pyrrolopyrimidines derivatives as JAK inhibitors” (Incyte Corporation, priority 2010, dated 2020).

For test [1], the target named is human JAK1 (a.a. 837-1142) (Homo sapiens, UniProt P23458). Description: In vitro JAK kinase assay (HTRF, phosphorylation of biotinylated peptide), JAK1. Format: biochemical. The conditions noted are these: 1 mM ATP. The procedure, abridged: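 His-tagged human JAK1 catalytic domain (a.a. 837-1142), baculovirus/insect-cell expressed, phosphorylates a biotinylated peptide for 1 h at room temperature. Reaction stopped with EDTA; product detected by HTRF (SA-APC, Eu-Py20, 40 min binding). IC50 reported as ranges.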
human JAK1 (a.a. 837-1142), sequence (P23458 849-1154): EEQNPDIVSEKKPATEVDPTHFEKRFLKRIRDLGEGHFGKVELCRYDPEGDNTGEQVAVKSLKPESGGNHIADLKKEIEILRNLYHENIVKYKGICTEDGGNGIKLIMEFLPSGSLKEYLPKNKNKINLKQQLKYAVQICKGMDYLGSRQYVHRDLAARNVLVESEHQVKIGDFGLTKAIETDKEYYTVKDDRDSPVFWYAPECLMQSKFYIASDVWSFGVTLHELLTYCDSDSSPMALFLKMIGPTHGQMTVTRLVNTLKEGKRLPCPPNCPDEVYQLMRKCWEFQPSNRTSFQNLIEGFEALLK
For orientation: TR-FRET usually uses a lanthanide donor and a delayed reading to cut background.

The target of another test is T1, JAK2 (a.a. 828-1132) (Homo sapiens, UniProt O60674).
T1 construct: JAK2 (a.a. 828-1132); His tag (N)
T1 sequence (O60674 828-1132): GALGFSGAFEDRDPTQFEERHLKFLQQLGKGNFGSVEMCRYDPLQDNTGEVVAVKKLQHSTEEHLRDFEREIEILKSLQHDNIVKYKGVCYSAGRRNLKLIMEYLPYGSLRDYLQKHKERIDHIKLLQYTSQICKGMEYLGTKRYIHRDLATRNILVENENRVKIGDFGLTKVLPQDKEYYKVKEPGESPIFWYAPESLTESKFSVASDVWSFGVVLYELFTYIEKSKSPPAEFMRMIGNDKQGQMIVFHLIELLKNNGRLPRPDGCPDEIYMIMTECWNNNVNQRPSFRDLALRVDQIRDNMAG
Description: In vitro JAK kinase assay (HTRF, phosphorylation of biotinylated peptide), JAK2. The following applies: 1 mM ATP. Format: biochemical. The gist of the method:
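His-tagged catalytic domains of human JAK1 (a.a. 837-1142) and JAK2 (a.a. 828-1132), baculovirus-expressed, phosphorylate a biotinylated peptide for 1 hour at room temperature. Stopped with EDTA; detected by HTRF using SA-APC and Eu-Py20 antibody after 40 min binding; values binned as ranges.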

Each structure is given as a SMILES string. Like-named read-outs stand apart in the source and are kept apart here.

With `N#CC[C@]1(n2cc(-c3ncnc4[nH]ccc34)cn2)C[C@H](N2CCC(Oc3cc(CN4CCCC4)cc(C(F)(F)F)n3)CC2)C1` [Example 158, {trans-3-(4-{[4-(pyrrolidin-1-ylmethyl)-6-(trifluoromethyl)pyridin-2-yl]oxy}piperidin-1-yl)-1-[4-(7H-pyrrolo[2,3-d]pyrimidin-4-yl)-1H-pyrazol-1-yl]cyclobutyl}acetonitrile], the IC50 (in general, the concentration at which inhibition is half-maximal) in test [1] (Table F) is under 0.01 µM; against JAK2 (a.a. 828-1132) (Table F), 0.025 to 0.1 µM.

Regarding `N#CC[C@]1(n2cc(-c3ncnc4[nH]ccc34)cn2)C[C@H](N2CCN(C(=O)c3ccnc(C(F)F)c3F)CC2)C1` [Example 11b, {trans-3-{4-[2-(difluoromethyl)-3-fluoroisonicotinoyl]piperazin-1-yl}-1-[4-(7H-pyrrolo[2,3-d]pyrimidin-4-yl)-1H-pyrazol-1-yl]cyclobutyl}acetonitrile], the IC50 in test [1] (Table B, read-out: JAK1 IC50) was under 0.01 µM; at JAK2 (a.a. 828-1132) (Table B, read-out: JAK2 IC50) it was 0.025 to 0.1 µM.

Take `CC(C)NCc1cc(C(=O)N2CCN([C@H]3C[C@](CC#N)(n4cc(-c5ncnc6[nH]ccc56)cn4)C3)CC2)nc(C(F)(F)F)n1` [Example 55, {trans-3-(4-{[6-[(isopropylamino)methyl]-2-(trifluoromethyl)pyrimidin-4-yl]carbonyl}piperazin-1-yl)-1-[4-(7H-pyrrolo[2,3-d]pyrimidin-4-yl)-1H-pyrazol-1-yl]cyclobutyl}acetonitrile]: the IC50 in test [1] (Table F) was under 0.01 µM; on JAK2 (a.a. 828-1132) (Table F) it was 0.025 to 0.1 µM.

For the molecule `N#CC[C@]1(n2cc(-c3ncnc4[nH]ccc34)cn2)C[C@H](N2CCN(C(=O)N[C@H]3CCC[C@@H]3O)CC2)C1` (racemic) [Example 88, 4-{trans-3-(cyanomethyl)-3-[4-(7H-pyrrolo[2,3-d]pyrimidin-4-yl)-1H-pyrazol-1-yl]cyclobutyl}-N-(2-hydroxycyclopentyl)piperazine-1-carboxamide], the IC50 in test [1] (Table F) is under 0.01 µM; against JAK2 (a.a. 828-1132) (Table F), 0.025 to 0.1 µM.

With `[2H][C@]1(N2CCN(C(=O)c3ccnc(C(F)(F)F)n3)CC2)C[C@](CC#N)(n2cc(-c3ncnc4[nH]ccc34)cn2)C1` [Example 31, [trans-1-[4-(7H-pyrrolo[2,3-d]pyrimidin-4-yl)-1H-pyrazol-1-yl]-3-(4-{[2-(trifluoromethyl)pyrimidin-4-yl]carbonyl}piperazin-1-yl)cyclobutyl]acetonitrile-d1], the IC50 is under 0.01 µM in test [1] (Table D, read-out: JAK1 IC50) and 0.025 to 0.1 µM on JAK2 (a.a. 828-1132) (Table D, read-out: JAK2 IC50).

For the molecule `N#CC[C@]1(n2cc(-c3ncnc4[nH]ccc34)cn2)C[C@H](N2CCC(Oc3cc(CN4CCCC4)nc(C(F)(F)F)n3)CC2)C1` [Example 148, {trans-3-(4-{[6-(pyrrolidin-1-ylmethyl)-2-(trifluoromethyl)pyrimidin-4-yl]oxy}piperidin-1-yl)-1-[4-(7H-pyrrolo[2,3-d]pyrimidin-4-yl)-1H-pyrazol-1-yl]cyclobutyl}acetonitrile], the results for the IC50 (in test [1] (Table F); at JAK2 (a.a. 828-1132) (Table F)) were 0.01 to 0.025 µM and over 0.1 µM, respectively.

Regarding `CNCc1cc(OC2CCN([C@H]3C[C@](CC#N)(n4cc(-c5ncnc6[nH]ccc56)cn4)C3)CC2)nc(C(F)(F)F)c1` [Example 132, {trans-3-(4-{[4-[(methylamino)methyl]-6-(trifluoromethyl)pyridin-2-yl]oxy}piperidin-1-yl)-1-[4-(7H-pyrrolo[2,3-d]pyrimidin-4-yl)-1H-pyrazol-1-yl]cyclobutyl}acetonitrile], the IC50 was under 0.01 µM in test [1] (Table F) and 0.025 to 0.1 µM at JAK2 (a.a. 828-1132) (Table F).

Consider `N#CC[C@]1(n2cc(-c3ncnc4[nH]ccc34)cn2)C[C@H](N2CCN(C(=O)c3ccc(F)c(F)c3)CC2)C1` [Example 15b, {trans-3-[4-(3,4-difluorobenzoyl)piperazin-1-yl]-1-[4-(7H-pyrrolo[2,3-d]pyrimidin-4-yl)-1H-pyrazol-1-yl]cyclobutyl}acetonitrile], for which the IC50 is under 0.01 µM in test [1] (Table B, read-out: JAK1 IC50) and 0.01 to 0.025 µM on JAK2 (a.a. 828-1132) (Table B, read-out: JAK2 IC50).

With `N#CC[C@]1(n2cc(-c3ncnc4[nH]ccc34)cn2)C[C@H](N2CCN(C(N)=O)CC2)C1` [Example 95, 4-{trans-3-(cyanomethyl)-3-[4-(7H-pyrrolo[2,3-d]pyrimidin-4-yl)-1H-pyrazol-1-yl]cyclobutyl}piperazine-1-carboxamide], the IC50 in test [1] (Table F) was under 0.01 µM; against JAK2 (a.a. 828-1132) (Table F), 0.025 to 0.1 µM.

As to `N#CC[C@]1(n2cc(-c3ncnc4[nH]ccc34)cn2)C[C@H](N2CCN(C(=O)NC3CCCC3)CC2)C1` [Example 90, 4-{trans-3-(cyanomethyl)-3-[4-(7H-pyrrolo[2,3-d]pyrimidin-4-yl)-1H-pyrazol-1-yl]cyclobutyl}-N-cyclopentylpiperazine-1-carboxamide], the values for the IC50 (in test [1] (Table F); against JAK2 (a.a. 828-1132) (Table F)) were under 0.01 µM and 0.01 to 0.025 µM, respectively.

Turning to `N#CC[C@]1(n2cc(-c3ncnc4[nH]ccc34)cn2)C[C@H](N2CCC(Oc3cc(CN)cc(C(F)(F)F)n3)CC2)C1` [Example 129, {trans-3-(4-{[4-(aminomethyl)-6-(trifluoromethyl)pyridin-2-yl]oxy}piperidin-1-yl)-1-[4-(7H-pyrrolo[2,3-d]pyrimidin-4-yl)-1H-pyrazol-1-yl]cyclobutyl}acetonitrile], the values for the IC50 (in test [1] (Table F); at JAK2 (a.a. 828-1132) (Table F)) were under 0.01 µM and 0.025 to 0.1 µM, respectively.

For `N#CC[C@]1(n2cc(-c3ncnc4[nH]ccc34)cn2)C[C@@H](N2CCN(C(=O)NC3CCC3)CC2)C1` [Example 104, 4-{cis-3-(cyanomethyl)-3-[4-(7H-pyrrolo[2,3-d]pyrimidin-4-yl)-1H-pyrazol-1-yl]cyclobutyl}-N-cyclobutylpiperazine-1-carboxamide], the IC50 in test [1] (Table F) was 0.01 to 0.025 µM; on JAK2 (a.a. 828-1132) (Table F), over 0.1 µM.

As to `C[C@H](NC(=O)N1CCN([C@H]2C[C@](CC#N)(n3cc(-c4ncnc5[nH]ccc45)cn3)C2)CC1)C1CC1` [Example 96, 4-{trans-3-(cyanomethyl)-3-[4-(7H-pyrrolo[2,3-d]pyrimidin-4-yl)-1H-pyrazol-1-yl]cyclobutyl}-N-[(1S)-1-cyclopropylethyl]piperazine-1-carboxamide], the values for the IC50 (in test [1] (Table F); on JAK2 (a.a. 828-1132) (Table F)) were under 0.01 µM and 0.025 to 0.1 µM, respectively.

With `N#CC[C@]1(n2cc(-c3ncnc4[nH]ccc34)cn2)C[C@H](N2CCN(C(=O)c3cc(C#N)cc(C(F)(F)F)n3)CC2)C1` [Example 71, 2-[(4-{trans-3-(cyanomethyl)-3-[4-(7H-pyrrolo[2,3-d]pyrimidin-4-yl)-1H-pyrazol-1-yl]cyclobutyl}piperazin-1-yl)carbonyl]-6-(trifluoromethyl)isonicotinonitrile], the results for the IC50 (in test [1] (Table F); at JAK2 (a.a. 828-1132) (Table F)) were under 0.01 µM and 0.025 to 0.1 µM, respectively.

On to `CN(C)Cc1cc(C#N)cc(C(=O)N2CCN([C@H]3C[C@](CC#N)(n4cc(-c5ncnc6[nH]ccc56)cn4)C3)CC2)c1` [Example 136, 3-[(4-{trans-3-(cyanomethyl)-3-[4-(7H-pyrrolo[2,3-d]pyrimidin-4-yl)-1H-pyrazol-1-yl]cyclobutyl}piperazin-1-yl)carbonyl]-5-[(dimethylamino)methyl]benzonitrile], for which the results for the IC50 (in test [1] (Table F); against JAK2 (a.a. 828-1132) (Table F)) were under 0.01 µM and 0.025 to 0.1 µM, respectively.

For the molecule `N#CC[C@]1(n2cc(-c3ncnc4[nH]ccc34)cn2)C[C@@H](N2CCN(C(=O)c3cncc(F)c3)CC2)C1` [Example 10a, {cis-3-{4-[(5-fluoropyridin-3-yl)carbonyl]piperazin-1-yl}-1-[4-(7H-pyrrolo[2,3-d]pyrimidin-4-yl)-1H-pyrazol-1-yl]cyclobutyl}acetonitrile], the IC50 in test [1] (Table A, read-out: JAK1 IC50) is under 0.01 µM; at JAK2 (a.a. 828-1132) (Table A, read-out: JAK2 IC50), over 0.1 µM.

In the case of `Cc1cc(OC2CCN([C@H]3C[C@](CC#N)(n4cc(-c5ncnc6[nH]ccc56)cn4)C3)CC2)nc(C(F)(F)F)n1` [Example 145, {trans-3-(4-{[6-methyl-2-(trifluoromethyl)pyrimidin-4-yl]oxy}piperidin-1-yl)-1-[4-(7H-pyrrolo[2,3-d]pyrimidin-4-yl)-1H-pyrazol-1-yl]cyclobutyl}acetonitrile], the IC50 in test [1] (Table F) was 0.01 to 0.025 µM; at JAK2 (a.a. 828-1132) (Table F), over 0.1 µM.

In the case of `N#CC[C@]1(n2cc(-c3ncnc4[nH]ccc34)cn2)C[C@H](N2CCN(C(=O)c3cc(CN4CCC4)nc(C(F)(F)F)n3)CC2)C1` [Example 49, {trans-3-(4-{[6-(azetidin-1-ylmethyl)-2-(trifluoromethyl)pyrimidin-4-yl]carbonyl}piperazin-1-yl)-1-[4-(7H-pyrrolo[2,3-d]pyrimidin-4-yl)-1H-pyrazol-1-yl]cyclobutyl}acetonitrile], the IC50 in test [1] (Table F) was under 0.01 µM; against JAK2 (a.a. 828-1132) (Table F) it was 0.025 to 0.1 µM.

Take `N#CC[C@]1(n2cc(-c3ncnc4[nH]ccc34)cn2)C[C@H](N2CCC(Oc3cc(CNCCO)cc(C(F)(F)F)n3)CC2)C1` [Example 154, {trans-3-(4-{[4-{[(2-hydroxyethyl)amino]methyl}-6-(trifluoromethyl)pyridin-2-yl]oxy}piperidin-1-yl)-1-[4-(7H-pyrrolo[2,3-d]pyrimidin-4-yl)-1H-pyrazol-1-yl]cyclobutyl}acetonitrile]: the IC50 in test [1] (Table F) is under 0.01 µM; on JAK2 (a.a. 828-1132) (Table F) it was 0.025 to 0.1 µM.

For the molecule `CC(C)c1nccc(C(=O)N2CCN([C@H]3C[C@](CC#N)(n4cc(-c5ncnc6[nH]ccc56)cn4)C3)CC2)n1` [Example 24b, {trans-3-{4-[(2-isopropylpyrimidin-4-yl)carbonyl]piperazin-1-yl}-1-[4-(7H-pyrrolo[2,3-d]pyrimidin-4-yl)-1H-pyrazol-1-yl]cyclobutyl}acetonitrile], the IC50 in test [1] (Table B, read-out: JAK1 IC50) was in the range of 0.01 to 0.025 µM; at JAK2 (a.a. 828-1132) (Table B, read-out: JAK2 IC50), 0.025 to 0.1 µM.

Take `N#CC[C@]1(n2cc(-c3ncnc4[nH]ccc34)cn2)C[C@H](N2CCN(C(=O)N3CCCCC3)CC2)C1` [Example 25, {trans-3-[4-(piperidin-1-ylcarbonyl)piperazin-1-yl]-1-[4-(7H-pyrrolo[2,3-d]pyrimidin-4-yl)-1H-pyrazol-1-yl]cyclobutyl}acetonitrile]: the IC50 in test [1] (Table B, read-out: JAK1 IC50) is 0.025 to 0.1 µM; at JAK2 (a.a. 828-1132) (Table B, read-out: JAK2 IC50) it was over 0.1 µM.
